# Laboratory results as given in PubChem BioAssay AID256 (DTP/NCI, 2004).
# Toxic doses and inconclusive results are not listed.
# Test system: CD2F1 mice, L1210 leukemia ip, survival T/C
# Assay: NCI In Vivo Anticancer Drug Screen. Data for tumor model L1210 Leukemia (intraperitoneal) in CD2F1 (CDF1) mice
# Conditions: higher = longer survival
# In short: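 Each value reflects a quotient of treated over vehicle control outcomes in mice with a transplanted tumor.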
# [1] = endpoint: mean survival time, dose: 100.0 mg/kg/injection, schedule: Q01DX009 (ip), vehicle: saline with Tween-80
# [2] = endpoint: mean survival time, dose: 200.0 mg/kg/injection, schedule: Q01DX009 (ip), vehicle: saline with Tween-80
# [3] = endpoint: mean survival time, dose: 400.0 mg/kg/injection, schedule: Q01DX009 (ip), vehicle: saline with Tween-80
# [4] = endpoint: mean survival time, dose: 100.0 mg/kg/injection, schedule: Q04DX003 (ip), vehicle: saline with Tween-80
# [5] = endpoint: mean survival time, dose: 200.0 mg/kg/injection, schedule: Q04DX003 (ip), vehicle: saline with Tween-80
# [6] = endpoint: mean survival time, dose: 50.0 mg/kg/injection, schedule: Q01DX009 (ip), vehicle: saline with Tween-80
structure (smiles),measurement,setting,value
NC(C(=O)O)C(N)C(=O)O (configuration not stated),T/C,[1],94 % of control
same,T/C,[2],96 % of control
same,T/C,[3],96 % of control
Cc1cn(C2CC(O)C(CO)O2)c(=O)nc1NCCc1c[nH]c2ccccc12 (configuration not stated),T/C,"endpoint: median survival time, dose: 12.5 mg/kg/injection, schedule: Q01DX005 (ip), vehicle: distilled water + Tween-80",103 % of control
same,T/C,"endpoint: median survival time, dose: 25.0 mg/kg/injection, schedule: Q01DX005 (ip), vehicle: distilled water + Tween-80",103 % of control
same,T/C,"endpoint: median survival time, dose: 50.0 mg/kg/injection, schedule: Q01DX005 (ip), vehicle: distilled water + Tween-80",102 % of control
same,T/C,"endpoint: median survival time, dose: 100.0 mg/kg/injection, schedule: Q01DX005 (ip), vehicle: distilled water + Tween-80",103 % of control
same,T/C,"endpoint: median survival time, dose: 200.0 mg/kg/injection, schedule: Q01DX005 (ip), vehicle: distilled water + Tween-80",102 % of control
C[N+](C)(C)C1CCCC1O (configuration not stated),T/C,"endpoint: mean survival time, dose: 25.0 mg/kg/injection, schedule: Q04DX002 (ip), vehicle: saline with Tween-80",98 % of control
same,T/C,"endpoint: mean survival time, dose: 50.0 mg/kg/injection, schedule: Q04DX002 (ip), vehicle: saline with Tween-80",98 % of control
same,T/C,"endpoint: mean survival time, dose: 100.0 mg/kg/injection, schedule: Q04DX002 (ip), vehicle: saline with Tween-80",95 % of control
same,T/C,"endpoint: mean survival time, dose: 200.0 mg/kg/injection, schedule: Q04DX002 (ip), vehicle: saline with Tween-80",95 % of control
CC(C)(C)C1(C)CC1(Br)Br (configuration not stated),T/C,[4],105 % of control
same,T/C,[5],96 % of control
C(=N\N(c1ccccc1)c1ccccc1)/c1ccc(/C=N/N(c2ccccc2)c2ccccc2)cc1,T/C,"endpoint: mean survival time, dose: 100.0 mg/kg/injection, schedule: Q04DX003 (ip), vehicle: Klucel (hydroxypropylcellulose) (HPC)",97 % of control
same,T/C,"endpoint: mean survival time, dose: 200.0 mg/kg/injection, schedule: Q04DX003 (ip), vehicle: Klucel (hydroxypropylcellulose) (HPC)",95 % of control
same,T/C,"endpoint: mean survival time, dose: 400.0 mg/kg/injection, schedule: Q04DX003 (ip), vehicle: Klucel (hydroxypropylcellulose) (HPC)",95 % of control
CCOc1ccc(NC(=S)N(C)C)cc1,T/C,[6],94 % of control
same,T/C,[1],94 % of control
same,T/C,[4],89 % of control
same,T/C,[2],90 % of control
same,T/C,[5],96 % of control
C=CC1OC2CCCCC2O1 (configuration not stated),T/C,"endpoint: mean survival time, dose: 100.0 mg/kg/injection, schedule: Q01DX001 (ip), vehicle: acetone",104 % of control
CC12CCC(CC1CO)C2 (configuration not stated),T/C,[4],88 % of control
same,T/C,[5],87 % of control
Nc1nc(C=O)nc2c1ncn2C1OC(CO)C(O)C1O (configuration not stated),T/C,"endpoint: median survival time, dose: 25.0 mg/kg/injection, schedule: Q01DX005 (ip), vehicle: water",101 % of control
same,T/C,"endpoint: median survival time, dose: 50.0 mg/kg/injection, schedule: Q01DX005 (ip), vehicle: water",117 % of control
same,T/C,"endpoint: median survival time, dose: 100.0 mg/kg/injection, schedule: Q01DX005 (ip), vehicle: water",117 % of control
CCC1(CC)C=CC(Br)CC1(CC)CC (configuration not stated),T/C,[1],101 % of control
same,T/C,[2],113 % of control
same,T/C,[3],98 % of control
O=C(CCl)NC(=O)CCl,T/C,"endpoint: mean survival time, dose: 25.0 mg/kg/injection, schedule: Q01DX009 (ip), vehicle: saline sonified",90 % of control
same,T/C,"endpoint: mean survival time, dose: 50.0 mg/kg/injection, schedule: Q01DX009 (ip), vehicle: saline sonified",104 % of control
same,T/C,"endpoint: mean survival time, dose: 100.0 mg/kg/injection, schedule: Q01DX009 (ip), vehicle: saline sonified",90 % of control
CC1=C(C)CN(c2ccccc2)SC1,T/C,[4],98 % of control
same,T/C,[5],98 % of control
same,T/C,"endpoint: mean survival time, dose: 400.0 mg/kg/injection, schedule: Q04DX003 (ip), vehicle: saline with Tween-80",98 % of control
C=C(C)CC#N,T/C,"endpoint: mean survival time, dose: 50.0 mg/kg/injection, schedule: Q01DX009 (ip), vehicle: saline",92 % of control
same,T/C,"endpoint: mean survival time, dose: 100.0 mg/kg/injection, schedule: Q01DX009 (ip), vehicle: saline",95 % of control
same,T/C,"endpoint: mean survival time, dose: 200.0 mg/kg/injection, schedule: Q01DX009 (ip), vehicle: saline",100 % of control
NC(N)=NC1CCCC1,T/C,"endpoint: mean survival time, dose: 25.0 mg/kg/injection, schedule: Q01DX009 (ip), vehicle: saline with Tween-80",102 % of control
same,T/C,"endpoint: mean survival time, dose: 25.0 mg/kg/injection, schedule: Q04DX003 (ip), vehicle: saline",100 % of control
same,T/C,[6],100 % of control
same,T/C,"endpoint: mean survival time, dose: 50.0 mg/kg/injection, schedule: Q04DX003 (ip), vehicle: saline",91 % of control
same,T/C,"endpoint: mean survival time, dose: 100.0 mg/kg/injection, schedule: Q04DX003 (ip), vehicle: saline",100 % of control
O=S(=O)(O)O.[NH-]C1CCCCC1C1CCCCC1[NH-].[Pt+2] (configuration not stated),T/C,"endpoint: mean survival time, dose: 3.12 mg/kg/injection, schedule: Q04DX003 (ip), vehicle: distilled water + Tween-80",119 % of control
same,T/C,"endpoint: mean survival time, dose: 12.5 mg/kg/injection, schedule: Q04DX003 (ip), vehicle: distilled water + Tween-80",156 % of control
